From PubChem BioAssay AID2060896 (Molecular Pharmacology Branch, DTP, NCI, 2025)

Tested on: 941728-121-R-J1-PDC complex spheroid viability
Experiment: Anticancer human tumor 941728-121-R-J1-PDC patient-derived lung adenocarcinoma cell line growth inhibition [RAS]
Conditions: for IC50: curve of first compound; for viability, T/C: stronger effect = lower value
Summary of the method: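 Tumour cells grown as complex spheroids with HUVEC endothelial cells and mesenchymal stem cells, treated with RAS pathway inhibitor combinations. Each agent spans half-log steps from near clinical Cmax, or 10 microM where Cmax is unknown.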

[1] = second compound 0.000949 µM, first compound 0.0316 µM
[2] = second compound 0.000949 µM, first compound 0.1 µM
[3] = second compound 0.000949 µM, first compound 0.316 µM
[4] = second compound 0.000949 µM, first compound 1 µM
[5] = second compound 0.003 µM, first compound 0.0316 µM
[6] = second compound 0.003 µM, first compound 0.1 µM
[7] = second compound 0.003 µM, first compound 0.316 µM
[8] = second compound 0.003 µM, first compound 1 µM
[9] = second compound 0.00949 µM, first compound 0.0316 µM
[10] = second compound 0.00949 µM, first compound 0.1 µM
[11] = second compound 0.00949 µM, first compound 0.316 µM
[12] = second compound 0.00949 µM, first compound 1 µM
[13] = second compound 0.03 µM, first compound 0.0316 µM
[14] = second compound 0.03 µM, first compound 0.1 µM
[15] = second compound 0.03 µM, first compound 0.316 µM
[16] = second compound 0.03 µM, first compound 1 µM
[17] = second compound 0.0949 µM, first compound 0.0316 µM
[18] = second compound 0.0949 µM, first compound 0.1 µM
[19] = second compound 0.0949 µM, first compound 0.316 µM
[20] = second compound 0.0949 µM, first compound 1 µM
[21] = second compound 0.3 µM, first compound 0.0316 µM
[22] = second compound 0.3 µM, first compound 0.1 µM
[23] = second compound 0.3 µM, first compound 0.316 µM
[24] = second compound 0.3 µM, first compound 1 µM
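Also: spheroids exposed to compounds for 7 days before readout.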
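For viability, T/C in this document: 100% = DMSO vehicle control viability.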

With NC1c2ccccc2OC12CCN(c1cnc3c(N4CCCc5ncccc54)n[nH]c3n1)CC2 (centres undefined) + CCn1c(-c2cc(N3CCN(C)CC3)cnc2C(C)OC)c2c3cc(ccc31)-c1csc(n1)CC(NC(=O)C1CC1C)C(=O)N1CCCC(N1)C(=O)OCC(C)(C)C2 the IC50 (second compound 0.000949 µM) was < 31.6 nM, the IC50 (second compound 0.003 µM) was < 31.6 nM and the IC50 (second compound 0.00949 µM) was < 31.6 nM. For the same molecule, the IC50 (second compound 0.03 µM) was < 31.6 nM, the IC50 (second compound 0.0949 µM) was < 31.6 nM and the IC50 (second compound 0.3 µM) was < 31.6 nM. For the same molecule, the viability, T/C [1] was 22%, the viability, T/C [2] was 17.4% and the viability, T/C [3] was 13.4%. It also gave a viability, T/C [4] of 16.5%, a viability, T/C (second compound 0.000949 µM, first compound 3.16 µM) of 16.6% and a viability, T/C (second compound 0.000949 µM, first compound 10 µM) of 12%. For the same molecule, the viability, T/C [5] was 15.2%, the viability, T/C [6] was 12.4% and the viability, T/C [7] was 10.6%. The viability, T/C [8] was 14%, the viability, T/C (second compound 0.003 µM, first compound 3.16 µM) was 13.8% and the viability, T/C (second compound 0.003 µM, first compound 10 µM) was 10.3%. The viability, T/C [9] was 13.7%, the viability, T/C [10] was 10.5% and the viability, T/C [11] was 12.5%. For the same molecule, the viability, T/C [12] was 10.8%, the viability, T/C (second compound 0.00949 µM, first compound 3.16 µM) was 9.25% and the viability, T/C (second compound 0.00949 µM, first compound 10 µM) was 9.84%. The viability, T/C [13] was 11.9%, the viability, T/C [14] was 12.4% and the viability, T/C [15] was 12.1%. The viability, T/C [16] was 11.1%, the viability, T/C (second compound 0.03 µM, first compound 3.16 µM) was 11.3% and the viability, T/C (second compound 0.03 µM, first compound 10 µM) was 15.1%. For the same molecule, the viability, T/C [17] was 11.4%, the viability, T/C [18] was 13.5% and the viability, T/C [19] was 12.8%. The viability, T/C [20] was 12.2%, the viability, T/C (second compound 0.0949 µM, first compound 3.16 µM) was 10.5% and the viability, T/C (second compound 0.0949 µM, first compound 10 µM) was 15.2%. The viability, T/C [21] was 11.6%, the viability, T/C [22] was 12.1% and the viability, T/C [23] was 10.4%. For the same molecule, the viability, T/C [24] was 10.9%, the viability, T/C (second compound 0.3 µM, first compound 3.16 µM) was 10.4% and the viability, T/C (second compound 0.3 µM, first compound 10 µM) was 15.5%.

Nc1ccn(C2OC(CO)C(O)C2(F)F)c(=O)n1 (centres undefined) + CCn1c(-c2cc(N3CCN(C)CC3)cnc2C(C)OC)c2c3cc(ccc31)-c1csc(n1)CC(NC(=O)C1CC1C)C(=O)N1CCCC(N1)C(=O)OCC(C)(C)C2 was tested, and the IC50 (second compound 0.000949 µM) was < 3.16 nM, the IC50 (second compound 0.003 µM) was < 3.16 nM and the IC50 (second compound 0.00949 µM) was < 3.16 nM. For the same molecule, the IC50 (second compound 0.03 µM) was < 3.16 nM, the IC50 (second compound 0.0949 µM) was < 3.16 nM and the IC50 (second compound 0.3 µM) was < 3.16 nM. The viability, T/C (second compound 0.000949 µM, first compound 0.00316 µM) was 25.2%, the viability, T/C (second compound 0.000949 µM, first compound 0.01 µM) was 25.2% and the viability, T/C [1] was 16.8%. It also gave a viability, T/C [2] of 21.1%, a viability, T/C [3] of 21% and a viability, T/C [4] of 17.1%. The viability, T/C (second compound 0.003 µM, first compound 0.00316 µM) was 18.2%, the viability, T/C (second compound 0.003 µM, first compound 0.01 µM) was 16.7% and the viability, T/C [5] was 13.1%. The viability, T/C [6] was 15.3%, the viability, T/C [7] was 16.6% and the viability, T/C [8] was 12.2%. For the same molecule, the viability, T/C (second compound 0.00949 µM, first compound 0.00316 µM) was 13.2%, the viability, T/C (second compound 0.00949 µM, first compound 0.01 µM) was 11.3% and the viability, T/C [9] was 12.9%. For the same molecule, the viability, T/C [10] was 12.9%, the viability, T/C [11] was 12.4% and the viability, T/C [12] was 10.5%. It also gave a viability, T/C (second compound 0.03 µM, first compound 0.00316 µM) of 12.4%, a viability, T/C (second compound 0.03 µM, first compound 0.01 µM) of 11.8% and a viability, T/C [13] of 10.8%. The viability, T/C [14] was 10.7%, the viability, T/C [15] was 10.8% and the viability, T/C [16] was 10.1%. It also gave a viability, T/C (second compound 0.0949 µM, first compound 0.00316 µM) of 13.3%, a viability, T/C (second compound 0.0949 µM, first compound 0.01 µM) of 10.6% and a viability, T/C [17] of 12.8%. It also gave a viability, T/C [18] of 11%, a viability, T/C [19] of 9.57% and a viability, T/C [20] of 11%. It also gave a viability, T/C (second compound 0.3 µM, first compound 0.00316 µM) of 10.7%, a viability, T/C (second compound 0.3 µM, first compound 0.01 µM) of 10.2% and a viability, T/C [21] of 11%. For the same molecule, the viability, T/C [22] was 10.4%, the viability, T/C [23] was 10.2% and the viability, T/C [24] was 11.7%.
